In patent US20190328706A1, “COMPOSITIONS COMPRISING AN INTEGRIN INHIBITOR AND AGENTS WHICH INTERACT WITH A CHEMOKINE AND METHODS OF USE THEREOF” (Saint Louis University, priority 2016, published 2019):
Where two headings read alike, the source gives them in different places.

What was measured:
[1] = test system: human G2 acute lymphoblastic leukemia (ALL) cells; assay: Flow cytometry cell-based assay: inhibition of soluble VCAM-1 binding to G2 ALL cells; details: for IC50: inhibition of sVCAM-1 binding to human G2 ALL cells, read-out: sVCAM-1 IC50; for inhibition of sVCAM-1 binding compared with other inhibitors / inhibition of sVCAM-1 binding compared with Firategrast: flow cytometry; for inhibition of sVCAM-1 binding compared with other inhibitors: FIG. 6, 7, 10, 11; for inhibition of sVCAM-1 binding compared with Firategrast: FIG. 5, 8, 9, 12
Procedure: (§1) Compounds were tested for their ability to inhibit the binding of soluble VCAM-1 to human G2 acute lymphoblastic leukemia (ALL) cells. Briefly, G2 ALL cells are pre-incubated with increasing concentrations (0.001 to 1000 nM) of compounds for 30 minutes. Soluble VCAM/Fc chimera protein (R&D systems) is then added to the mixture and the cells incubated for an additional 30 minutes. Afterwards, cells are washed and VCAM-1 is detected using PE-conjugated secondary mAbs. In each experiment, an aliquot of cells will be stained with isotype control mAbs to serve as a negative control. The percentage of VCAM-1 binding cells was then determined by flow cytometry.
as §1, with “(ALL) cells or 5TGMI myeloma” for “(ALL)”, “ALL or 5TGMI” for “ALL”

[2] = test system: murine HSPCs; assay: Colony forming cell (CFC/CFU) assay of mobilized peripheral blood, DBA/2 mice; assay type: in vivo; details: DBA/2J mice, FIG. 16
Procedure: The VLA-4 inhibitors Examples 1220, 1221, 1224, 1610, and 1611 were prepared in DMSO/10 mM sodium bicarbonate pH 8/saline (1%/49.5%/49.5%) and injected subcutaneously (SC) at a dose of 3 mg/kg.
(§2) Peripheral blood (PB) was drawn from the facial vein without anaesthesia into K/EDTA anti-coagulated tubes (Sarstedt AG & Co, Numbrecht, Germany). Red blood cells were removed from 25 L aliquots of blood using hypotonic lysis (Ammonium-Chloride-Potassium, ACK buffer, 5-10 min at RT) and samples were mixed with 2.5 mL methylcellulose media supplemented with a cocktail of recombinant cytokines (MethoCult 3434; Stem Cell Technologies, Vancouver, BC, Canada). Cultures were plated in duplicate in 35 mm dishes and placed in a humidified chamber with 5% CO2 at 37° C. After 7 d of culture, colonies containing at least 50 cells were counted using an inverted microscope in a blinded fashion.
(§3) Recombinant human CXCL2 (Groβt; R&D systems) was reconstituted in sterile Ca^+2/Mg^+2-free phosphate buffered saline (PBS) and injected subcutaneously (SC) at a dose of 2.5 mg/kg. Firategrast (U.S. Patent Application No. 2014/051655) was dissolved in Ca^+2/Mg^+2-free PBS plus 1% ethanol and injected intravenously at a dose of 100 mg/kg. RhG-CSF (Neupogen®, Filgrastim, Amgen, Thousand Oaks, Calif., USA) diluted in PBS was injected i.p. every 12 hrs at a dose of 100 μg/kg for a total of 9 (day 5) doses.
as §2, with “Co, Nimbrecht,” for “Co, Numbrecht,”, “25 μL” for “25 L”
as §3, with “(published structure: C27H27F2NO6; U.S.” for “(U.S.”

Row | SMILES | IC50 ([1]; Table 8) | inhibition of sVCAM-1 binding compared with Firategrast [1] | further results
1 | CCOCc1cc(OC)c(-c2ccc(C[C@H](NC(=O)c3c(Cl)cccc3Cl)C(=O)O)cc2C(C)O)c(OC)c1 (stereo partly drawn) [Cmpd 12, (2S)-2-(2,6-dichlorobenzamido)-3-(4′-(ethoxymethyl)-2-(1-hydroxyethyl)-2′,6′-dimethoxy-[1,1′-biphenyl]-4-yl)propanoic acid] | – | – | IC50 ([1]; Table 12): 3.33 nM; amount of CFU-C cells mobilized in combination with Groβt versus inhibitor alone [2]: nearly doubled
2 | CCOCc1cc(OC)c(-c2ccc(C[C@H](NC(=O)c3c(Cl)cc(C(=O)O)cc3Cl)C(=O)O)cc2)c(OC)c1 [Compound 1221, 4-{[(1S)-1-carboxy-2-{4-[4-(ethoxymethyl)-2,6-dimethoxyphenyl]phenyl}ethyl]carbamoyl}-3,5-dichlorobenzoic acid] | 0.58 nM | – | inhibition of sVCAM-1 binding compared with other inhibitors [1]: more potent inhibitors than 823
3 | COc1cc(C(=O)O)cc(OC)c1-c1ccc(C[C@H](NC(=O)c2c(Cl)cc(C(=O)O)cc2Cl)C(=O)O)cc1 [Compound 1222, 4-{4-[(2S)-2-carboxy-2-[(4-carboxy-2,6-dichlorophenyl)formamido]ethyl]phenyl}-3,5-dimethoxybenzoic acid] | 218 nM | – | –
4 | COc1cc(CF)cc(OC)c1-c1ccc(C[C@H](NC(=O)c2c(Cl)cc(C(=O)O)cc2Cl)C(=O)O)cc1 [Compound 1224, 4-{[(1S)-1-carboxy-2-{4-[4-(fluoromethyl)-2,6-dimethoxyphenyl]phenyl}ethyl]carbamoyl}-3,5-dichlorobenzoic acid] | 1.57 nM | – | inhibition of sVCAM-1 binding compared with other inhibitors [1]: more potent inhibitors than 823
5 | COCCOCCOCCOCc1cc(OC)c(-c2ccc(C[C@H](NC(=O)c3c(Cl)cc(C(=O)O)cc3Cl)C(=O)O)cc2)c(OC)c1 [Compound 1570, (S)-4-((2-(4′-(2,5,8,11-tetraoxadodecyl)-2′,6′-dimethoxy-[1,1′-biphenyl]-4-yl)-1-carboxyethyl)carbamoyl)-3,5-dichlorobenzoic acid] | 2.97 nM | greater inhibition of sVCAM-1 binding than did Firategrast | –
6 | CCCCCC(=O)OCc1cc(OC)c(-c2ccc(C[C@H](NC(=O)c3c(Cl)cc(C(=O)O)cc3Cl)C(=O)O)cc2)c(OC)c1 [Compound 1571, (S)-4-((1-carboxy-2-(4′-((hexanoyloxy)methyl)-2′,6′-dimethoxy-[1,1′-biphenyl]-4-yl)ethyl)carbamoyl)-3,5-dichlorobenzoic acid] | 4.43 nM | greater inhibition of sVCAM-1 binding than did Firategrast | –
7 | CCOCc1cc(OC)c(-c2ccc(C[C@H](NC(=O)[C@]3(C)CCCN3S(=O)(=O)c3cc(Cl)cc(Cl)c3)C(=O)O)cc2)c(OC)c1 [Compound 1608, (S)-2-((S)-1-((3,5-dichlorophenyl)sulfonyl)-2-methylpyrrolidine-2-carboxamido)-3-(4′-(ethoxymethyl)-2′,6′-dimethoxy-[1,1′-biphenyl]-4-yl)propanoic acid] | 2.47 nM | significantly more potent than Firategrast | –
8 | CCOCc1cc(OC)c(-c2ccc(C[C@H](NC(=O)[C@]3(C)CCCN3S(=O)(=O)c3ccccc3)C(=O)O)cc2)c(OC)c1 [Compound 1609, (S)-3-(4′-(ethoxymethyl)-2′,6′-dimethoxy-[1,1′-biphenyl]-4-yl)-2-((S)-2-methyl-1-(phenylsulfonyl)pyrrolidine-2-carboxamido)propanoic acid] | 11.7 nM | significantly more potent than Firategrast | –
9 | COc1cccc(OC)c1-c1ccc(C[C@H](NC(=O)c2c(Cl)cccc2Cl)C(=O)O)cc1C(C)O (some centres unmarked) [Compound 1632] | – | significantly more potent than Firategrast | IC50 ([1]; Table 10): 10 nM
10 | COCCOCc1cc(OC)c(-c2ccc(C[C@H](NC(=O)[C@@H]3CCN3S(=O)(=O)c3cc(Cl)cc(Cl)c3)C(=O)O)cc2)c(OC)c1 [Compound 1746, (S)-2-((S)-1-((3,5-dichlorophenyl)sulfonyl)azetidine-2-carboxamido)-3-(2′,6′-dimethoxy-4′-((2-methoxyethoxy)methyl)-[1,1′-biphenyl]-4-yl)propanoic acid] | 3.79 nM | – | inhibition of sVCAM-1 binding compared with other inhibitors [1]: inhibition was greatest
11 | COCCOCc1cc(OC)c(-c2ccc(C[C@H](NC(=O)[C@@H]3CCCN3S(=O)(=O)c3ccc(C(=O)O)cc3)C(=O)O)cc2)c(OC)c1 [Compound 1747, 4-(((S)-2-(((S)-1-carboxy-2-(2′,6′-dimethoxy-4′-((2-methoxyethoxy)methyl)-[1,1′-biphenyl]-4-yl)ethyl)carbamoyl)pyrrolidin-1-yl)sulfonyl)benzoic acid] | 7.58 nM | – | –
12 | COCCOCCOCCOCc1cc(OC)c(-c2ccc(C[C@H](NC(=O)[C@@H]3CCN3S(=O)(=O)c3ccccc3)C(=O)O)cc2)c(OC)c1 [Compound 2087, (S)-3-(4′-(2,5,8,11-tetraoxadodecyl)-2′,6′-dimethoxy-[1,1′-biphenyl]-4-yl)-2-((S)-1-(phenylsulfonyl)azetidine-2-carboxamido)propanoic acid] | 2.06 nM | – | –

More lines, in order of falling IC50 ([1]; Table 8), values ahead:

Row | IC50 ([1]; Table 8) | SMILES | inhibition of sVCAM-1 binding compared with Firategrast [1] | further results
13 | 70 nM | COc1cc(C(C)(C)O)cc(OC)c1-c1ccc(C[C@H](NC(=O)c2c(Cl)cc(C(=O)O)cc2Cl)C(=O)O)cc1 [Compound 1223, 4-{[(1S)-1-carboxy-2-{4-[4-(2-hydroxypropan-2-yl)-2,6-dimethoxyphenyl]phenyl}ethyl]carbamoyl}-3,5-dichlorobenzoic acid] | – | –
14 | 12.9 nM | CCCCCCOCc1cc(OC)c(-c2ccc(C[C@H](NC(=O)c3c(Cl)cc(C(=O)O)cc3Cl)C(=O)O)cc2)c(OC)c1 [Compound 1555, (S)-4-((1-carboxy-2-(4′-((hexyloxy)methyl)-2′,6′-dimethoxy-[1,1′-biphenyl]-4-yl)ethyl)carbamoyl)-3,5-dichlorobenzoic acid] | greater inhibition of sVCAM-1 binding than did Firategrast | –
15 | 3.7 nM | COCCOCc1cc(OC)c(-c2ccc(C[C@H](NC(=O)[C@@H]3CCN3S(=O)(=O)c3ccccc3)C(=O)O)cc2)c(OC)c1 [Compound 1745, (S)-3-(2′,6′-dimethoxy-4′-((2-methoxyethoxy)methyl)-[1,1′-biphenyl]-4-yl)-2-((S)-1-(phenylsulfonyl)azetidine-2-carboxamido)propanoic acid] | – | –
16 | 1.47 nM | COCCOCc1cc(OC)c(-c2ccc(C[C@H](NC(=O)c3c(Cl)cc(C(=O)O)cc3Cl)C(=O)O)cc2)c(OC)c1 [Compound 1554, (S)-4-((1-carboxy-2-(2′,6′-dimethoxy-4′-((2-methoxyethoxy)methyl)-[1,1′-biphenyl]-4-yl)ethyl)carbamoyl)-3,5-dichlorobenzoic acid] | greater inhibition of sVCAM-1 binding than did Firategrast | –
17 | 0.7 nM | COCCOCCOCCOCc1cc(OC)c(-c2ccc(C[C@H](NC(=O)[C@@H]3CCN3S(=O)(=O)c3cc(Cl)cc(Cl)c3)C(=O)O)cc2)c(OC)c1 [Compound 2088, (S)-3-(4′-(2,5,8,11-tetraoxadodecyl)-2′,6′-dimethoxy-[1,1′-biphenyl]-4-yl)-2-((S)-1-((3,5-dichlorophenyl)sulfonyl)azetidine-2-carboxamido)propanoic acid] | – | inhibition of sVCAM-1 binding compared with other inhibitors [1]: inhibition was greatest
